Active and inactive are the calls of the source. The calls are words filed in the database; no cut-off is given here.
Tests used:
[1] = Acute toxicity in po dosed Rattus norvegicus Wistar (rat); assay type: organism-based; conditions: in vivo
[2] = test system: Triticum aestivum; test: Increase in winter Triticum aestivum (wheat) crop yield assessed as gluten content at 900 g/ha applied at the end of tillering stage of crop measured at 4 weeks post-drug dosage (reference value: 25.95%); assay type: functional
[3] = test system: Brassica napus; test: Herbicidal activity against Brassica napus (oilseed rape) in winter wheat crop field at 900 g/ha applied at the end of tillering stage of crop measured at 4 weeks post-drug dosage; assay type: functional
[4] = test system: Triticum aestivum; test: Increase in winter Triticum aestivum (wheat) crop yield assessed as protein content at 900 g/ha applied at the end of tillering stage of crop measured at 4 weeks post-drug dosage (reference value: 11.12%); assay type: functional
[5] = test system: Triticum aestivum; test: Increase in winter Triticum aestivum (wheat) crop yield assessed as weight of 1000 grains at 900 g/ha applied at the end of tillering stage of crop measured at 4 weeks post-drug dosage (reference value: 37.79 g); assay type: functional
[6] = test system: Triticum aestivum; test: Increase in winter Triticum aestivum (wheat) crop yield at 900 g/ha applied at the end of tillering stage of crop measured at 4 weeks post-drug dosage (reference value: 7.40 t/ha); assay type: functional
[7] = test system: Consolida regalis; test: Herbicidal activity against Consolida regalis in winter wheat crop field at 900 g/ha applied at the end of tillering stage of crop measured at 4 weeks post-drug dosage; assay type: functional
[8] = test system: Matricaria; test: Herbicidal activity against Matricaria inodora in winter wheat crop field at 900 g/ha applied at the end of tillering stage of crop measured at 4 weeks post-drug dosage; assay type: functional
[9] = test system: Thlaspi arvense; test: Herbicidal activity against Thlaspi arvense in winter wheat crop field at 900 g/ha applied at the end of tillering stage of crop measured at 4 weeks post-drug dosage; assay type: functional
[10] = test system: Brassica napus; test: Herbicidal activity against Brassica napus (oilseed rape) measured at 4 weeks post-drug dosage; assay type: functional, organism-based
[11] = test system: Thlaspi arvense; test: Herbicidal activity against Thlaspi arvense measured at 4 weeks post-drug dosage; assay type: functional, organism-based
[12] = test system: Chenopodium album; test: Herbicidal activity against Chenopodium album measured at 4 weeks post-drug dosage; assay type: functional, organism-based
[13] = test system: Viola arvensis; test: Herbicidal activity against Viola arvensis measured at 4 weeks post-drug dosage; assay type: functional, organism-based
[14] = test system: Euphorbia helioscopia; test: Herbicidal activity against Euphorbia helioscopia measured at 4 weeks post-drug dosage; assay type: functional, organism-based
[15] = test system: Centaurea cyanus; test: Herbicidal activity against Centaurea cyanus measured at 4 weeks post-drug dosage; assay type: functional, organism-based
[16] = test system: Triticum aestivum; test: Reduction in Triticum aestivum (wheat) stem length applied at the end of tillering stage of crop measured at 4 weeks post-drug dosage; assay type: functional, organism-based
[17] = test system: Myosotis arvensis; test: Herbicidal activity against Myosotis arvensis measured at 4 weeks post-drug dosage; assay type: functional, organism-based
[18] = test system: Consolida regalis; test: Herbicidal activity against Consolida regalis in winter wheat crop field at 600 g/ha applied at the end of tillering stage of crop measured at 4 weeks post-drug dosage; assay type: functional
[19] = test system: Triticum aestivum; test: Increase in winter Triticum aestivum (wheat) crop yield at 600 g/ha applied at the end of tillering stage of crop measured at 4 weeks post-drug dosage (reference value: 7.40 t/ha); assay type: functional
[20] = test system: Thlaspi arvense; test: Herbicidal activity against Thlaspi arvense in winter wheat crop field at 600 g/ha applied at the end of tillering stage of crop measured at 4 weeks post-drug dosage; assay type: functional
[21] = test system: Triticum aestivum; test: Increase in winter Triticum aestivum (wheat) crop yield assessed as weight of 1000 grains at 600 g/ha applied at the end of tillering stage of crop measured at 4 weeks post-drug dosage (reference value: 37.79 g); assay type: functional
[22] = test system: Matricaria; test: Herbicidal activity against Matricaria inodora in winter wheat crop field at 600 g/ha applied at the end of tillering stage of crop measured at 4 weeks post-drug dosage; assay type: functional
[23] = test system: Brassica napus; test: Herbicidal activity against Brassica napus (oilseed rape) in winter wheat crop field at 600 g/ha applied at the end of tillering stage of crop measured at 4 weeks post-drug dosage; assay type: functional
[24] = test system: Triticum aestivum; test: Increase in winter Triticum aestivum (wheat) crop yield assessed as gluten content at 600 g/ha applied at the end of tillering stage of crop measured at 4 weeks post-drug dosage (reference value: 25.95%); assay type: functional
[25] = test system: Triticum aestivum; test: Increase in winter Triticum aestivum (wheat) crop yield assessed as protein content at 600 g/ha applied at the end of tillering stage of crop measured at 4 weeks post-drug dosage (reference value: 11.12%); assay type: functional

CCCCCCCCCC[N+](C)(C)CCCCCCCCCC.Cc1cc(Cl)ccc1OCC(=O)[O-]
LD50 [1]: 300 mg/kg

C[N+](C)(C)CCCl.[Cl-] [CHLORMEQUAT CHLORIDE]
LD50 [1]: 1300 mg/kg

Cc1cc(Cl)ccc1OCC(=O)[O-].[Na+]
Activity [2]: 27.33%
Activity [3]: 100%
Activity [4]: 11.08%
Activity [5]: 39.3 g
Crop_yield [6]: 7.81 tons/ha
Activity [7]: 96%
Activity [8]: 56%
Activity [9]: 100%

C[N+](C)(C)CCl.Cc1cc(Cl)ccc1OCC(=O)[O-] [listing 1 of 2 here]
Activity [10]: Active
Activity [11]: Active
Activity [12]: Active
Activity [13]: Active
Activity [14]: Active
Activity [15]: Active
inhibition [16]: Active
Activity [17]: Active

CCCCC(CC)OC(=O)COc1ccc(Cl)cc1C (centres undefined)
Activity [18]: 95%
Crop_yield [19]: 7.8 tons/ha
Activity [20]: 100%
Activity [21]: 39.78 g
Activity [22]: 62%
Activity [23]: 100%
Activity [24]: 27.12%
Activity [25]: 11.03%
LD50 [1]: 1300 mg/kg

C[N+](C)(C)CCl.Cc1cc(Cl)ccc1OCC(=O)[O-] [listing 2 of 2 here]
LD50 [1]: 300 mg/kg

Cc1cc(Cl)ccc1OCC(=O)O [METAXON]
LD50 [1]: 962 mg/kg
